Laboratory results reported in ChEMBL document CHEMBL4177666, “Compound design guidelines for evading the efflux and permeation barriers of Escherichia coli with the oxazolidinone class of antibacterials: Test case for a general approach to improving whole cell Gram-negative activity” (Bioorg Med Chem Lett, 2017).
Converted amounts (≈) assume the structure as drawn.

Experiments:
Assay type in all cases: functional
Escherichia coli [1] = experiment: Antibacterial activity against gram-negative wild type Escherichia coli MG1655 by CLSI broth microdilution method
Staphylococcus aureus = experiment: Antibacterial activity against methicillin-susceptible Staphylococcus aureus ATCC 29213 by CLSI broth microdilution method
Escherichia coli [2] = experiment: Efflux index, ratio of MIC for wild type Escherichia coli MG1655 to MIC for Escherichia coli MG1655 expressing AcrAB-TolC efflux pump deletion mutant
Escherichia coli [3] = experiment: Antibacterial activity against gram-negative Escherichia coli MG1655 membrane permeabilized mutant in presence of polymyxinnonapeptide by CLSI broth microdilution method
Escherichia coli [4] = experiment: Antibacterial activity against gram-negative Escherichia coli MG1655 expressing AcrAB-TolC efflux pump deletion mutant by CLSI broth microdilution method
Escherichia coli [5] = experiment: Permeability index, ratio of MIC for wild type Escherichia coli MG1655 to MIC for Escherichia coli MG1655 membrane permeabilized mutant in presence of polymyxinnonapeptide
Bacterial 70S ribosome = experiment: Inhibition of protein synthesis in Escherichia coli ribosomes incubated for 1 hr at 37 degC by SDS-PAGE and Gaussia luciferase reporter gene assay

Structure (SMILES)	MIC (Escherichia coli [1])	MIC (Staphylococcus aureus)	Ratio (Escherichia coli [2])	MIC (Escherichia coli [3])	MIC (Escherichia coli [4])	Ratio (Escherichia coli [5])	IC50 (Bacterial 70S ribosome)
O=C1O[C@@H](CO)CN1c1ccc(O)cc1F	> 256 mg/L	> 64 mg/L					
N/C(=N\O)c1ccc(-c2ccc(N3C[C@H](CO)OC3=O)cc2)cc1	> 256 mg/L	2 mg/L (≈ 6.11 µM)	>32	32 mg/L	8 mg/L (≈ 24.4 µM)	>8	
CCOc1cn(C[C@H]2CN(c3ccc(-c4ccc(CN)cc4)c(F)c3)C(=O)O2)nn1	> 64 mg/L	16 mg/L (≈ 38.9 µM)	>4		32 mg/L (≈ 77.8 µM)		
N#Cc1cc(O)cc(-c2ccc(N3C[C@H](Cn4ccnn4)OC3=O)cc2F)c1	> 256 mg/L	8 mg/L (≈ 21.1 µM)	>4	128 mg/L	64 mg/L (≈ 169 µM)	>2	
O=C(O)c1ccc(N2C[C@H](CO)OC2=O)cc1F	> 256 mg/L	> 64 mg/L					
N/C(=N\O)c1ccc(-c2ccc(N3C[C@H](CNC(=O)C(F)(F)F)OC3=O)cc2F)cc1	> 256 mg/L	< 0.5 mg/L	>256	16 mg/L	< 2 mg/L	>16	
CC(=O)NC[C@H]1CN(c2ccc(-c3ccc(C#N)c(O)c3)c(F)c2)C(=O)O1	> 256 mg/L	2 mg/L (≈ 5.41 µM)	>8	32 mg/L	32 mg/L (≈ 86.6 µM)	>8	
CC(=O)NC[C@H]1CN(c2ccc(-c3cnc(C#N)c(O)c3)c(F)c2)C(=O)O1	> 256 mg/L	32 mg/L (≈ 86.4 µM)	>2		128 mg/L (≈ 346 µM)		
NCc1ccc(-c2ccc(N3C[C@H](CO)OC3=O)cc2F)cc1O			10.2			2.6	
NCc1ccc(-c2ccc(N3C[C@H](CN4C(=O)CNC4=O)OC3=O)cc2F)cc1	> 256 mg/L	> 64 mg/L					
NCc1cc(F)c(-c2ccc(N3C[C@H](CO)OC3=O)cc2F)cc1O			1			2	
COc1cc(N2C[C@H](CO)OC2=O)ccc1-c1ccc(CN)cc1	> 256 mg/L	> 64 mg/L					
O=C1O[C@@H](CNC(=O)C(F)(F)F)CN1c1ccc(-c2ccc(F)c(O)c2)c(F)c1	> 256 mg/L	32 mg/L (≈ 76.9 µM)	>2	256 mg/L	256 mg/L (≈ 615 µM)	>2	
NCc1ccc(-c2ccc(N3C[C@H](Cn4nc[nH]c4=O)OC3=O)cc2F)cc1	> 64 mg/L	32 mg/L (≈ 83.5 µM)					
CC(=O)NC[C@H]1CN(c2ccc(-c3ccnc(N)c3)c(F)c2)C(=O)O1	128 mg/L (≈ 372 µM)	2 mg/L (≈ 5.81 µM)	16	32 mg/L	8 mg/L (≈ 23.2 µM)	4	
NCc1ccc(-c2ccc(N3C[C@H](Cn4cc(C(=O)O)nn4)OC3=O)cc2F)cc1	> 256 mg/L	> 64 mg/L					
N#Cc1ccc(-c2ccc(N3C[C@H](CO)OC3=O)nc2)cc1O	> 256 mg/L	> 64 mg/L					
O=C1O[C@@H](CO)CN1c1ccc(-c2ccccc2F)cc1	> 64 mg/L	4 mg/L (≈ 13.9 µM)	>8		8 mg/L (≈ 27.8 µM)		
NCc1ncc(-c2ccc(N3C[C@H](CO)OC3=O)cc2F)cc1O	51 mg/L (≈ 153 µM)	20 mg/L (≈ 60 µM)	1.6			1.6	192 µM

Structure (SMILES)	MIC (Escherichia coli [1])	MIC (Staphylococcus aureus)	Ratio (Escherichia coli [2])	MIC (Escherichia coli [3])	MIC (Escherichia coli [4])	Ratio (Escherichia coli [5])	IC50 (Bacterial 70S ribosome)
NC(/C=C/c1ccc(N2C[C@H](CO)OC2=O)cc1F)=N\O	> 128 mg/L	> 64 mg/L					
CC(=O)NC[C@H]1CN(c2ccc(N3CCOCC3)c(F)c2)C(=O)O1 [LINEZOLID]	130 mg/L (≈ 385 µM)	3.1 mg/L (≈ 9.19 µM)	12	36 mg/L	11 mg/L (≈ 32.6 µM)	3.6	23.7 µM
NCc1ccc(-c2ccc(N3C[C@H](Cn4nncc4O)OC3=O)cc2F)cc1	> 64 mg/L	> 64 mg/L					
CC(=O)NC[C@H]1CN(c2ccc(-c3ccc(F)c(O)c3)c(F)c2)C(=O)O1	> 256 mg/L	2 mg/L (≈ 5.52 µM)	>32	16 mg/L	8 mg/L (≈ 22.1 µM)	>16	
O=C(NC[C@H]1CN(c2ccc(-c3ccc(F)c(O)c3)c(F)c2)C(=O)O1)C(F)F	> 32 mg/L	1 mg/L (≈ 2.51 µM)	>8	8 mg/L	4 mg/L (≈ 10 µM)	>4	
N#Cc1cc(O)cc(-c2ccc(N3C[C@H](Cn4nccn4)OC3=O)cc2F)c1	> 256 mg/L	32 mg/L (≈ 84.4 µM)	>4	64 mg/L	64 mg/L (≈ 169 µM)	>4	
NCc1ccc(-c2ccc(N3C[C@H](Cn4nncc4CO)OC3=O)cc2F)cc1	> 256 mg/L	> 64 mg/L					
NCc1ccc(-c2ccc(N3C[C@H](Cn4nncc4C(=O)O)OC3=O)cc2F)cc1	> 128 mg/L	16 mg/L (≈ 38.9 µM)					
CCOc1cnnn1C[C@H]1CN(c2ccc(-c3ccc(CN)cc3)c(F)c2)C(=O)O1	> 256 mg/L	32 mg/L (≈ 77.8 µM)	>2	256 mg/L	128 mg/L (≈ 311 µM)	>1	
NCc1ccc(-c2ccc(N3C[C@H](Cn4cc(CN)nn4)OC3=O)cc2F)cc1	> 256 mg/L	8 mg/L (≈ 20.2 µM)	>2	128 mg/L	128 mg/L (≈ 323 µM)	>2	
O=C1O[C@@H](CO)CN1c1ccc(-c2cc(O)ccc2F)cc1	> 256 mg/L	1 mg/L (≈ 3.3 µM)	>16	32 mg/L	16 mg/L (≈ 52.8 µM)	>8	
O=C1O[C@@H](CO)CN1c1ccc(-c2ccc([N+](=O)[O-])c(O)c2)c(F)c1			1			1	
NCc1ccc(-c2ccc(N3C[C@H](CO)OC3=O)cc2O)cc1	> 256 mg/L	> 64 mg/L					
O=C1O[C@@H](CO)CN1c1ccc(-c2cc(O)c(F)cc2F)cc1	> 256 mg/L	4 mg/L (≈ 12.5 µM)	>8	64 mg/L	32 mg/L (≈ 99.6 µM)	>4	
N/C(=N\O)c1ccc(-c2ccc(N3C[C@H](CNC(=O)C(F)(F)F)OC3=O)cc2F)cc1O	> 256 mg/L	> 64 mg/L					
NCCC#Cc1ccc(N2C[C@H](CO)OC2=O)cc1F	> 256 mg/L	> 64 mg/L					
NCc1ccc(-c2ccc(N3C[C@H](CN4CCOC4=O)OC3=O)cc2F)cc1	> 256 mg/L	16 mg/L (≈ 41.5 µM)	>=2		256 mg/L (≈ 664 µM)		
NCc1ccc(-c2ccc(N3C[C@H](CNC(=O)C(F)(F)F)OC3=O)cc2F)cc1	64 mg/L (≈ 156 µM)	2 mg/L (≈ 4.86 µM)	32	11 mg/L	2 mg/L (≈ 4.86 µM)	6	
Nc1cc(-c2ccc(N3C[C@H](CNC(=O)C(F)(F)F)OC3=O)cc2F)ccn1	> 32 mg/L	4 mg/L (≈ 10 µM)	>=8	16 mg/L	8 mg/L (≈ 20.1 µM)	>=4	

Structure (SMILES)	MIC (Escherichia coli [1])	MIC (Staphylococcus aureus)	Ratio (Escherichia coli [2])	MIC (Escherichia coli [3])	MIC (Escherichia coli [4])	Ratio (Escherichia coli [5])	IC50 (Bacterial 70S ribosome)
COc1ccc(N2C[C@H](CO)OC2=O)cc1O	> 256 mg/L	> 64 mg/L					
N/C(=N\O)c1ccc(-c2ccc(N3C[C@H](CO)OC3=O)cc2F)cn1	> 256 mg/L	1 mg/L (≈ 2.89 µM)	>16	16 mg/L	16 mg/L (≈ 46.2 µM)	>16	
CC(=O)NC[C@H]1CN(c2ccc(-c3ccc(CN)c(O)c3)c(F)c2)C(=O)O1	128 mg/L (≈ 343 µM)	4 mg/L (≈ 10.7 µM)	16	64 mg/L	8 mg/L (≈ 21.4 µM)	2	
CC(=O)NC[C@H]1CN(c2ccc(-c3ccc(CN)cc3)c(F)c2)C(=O)O1	64 mg/L (≈ 179 µM)	2 mg/L (≈ 5.6 µM)	8	32 mg/L	8 mg/L (≈ 22.4 µM)	2	
O=C1O[C@@H](CO)CN1c1ccc(-c2ccc(N3C[C@@H](CO)OC3=O)nc2)c(F)c1	> 128 mg/L	32 mg/L (≈ 79.3 µM)					
NCc1ccc(-c2ccc(N3C[C@H](CNC(=O)C(F)F)OC3=O)cc2F)cc1	128 mg/L (≈ 325 µM)	2 mg/L (≈ 5.08 µM)	32	32 mg/L	4 mg/L (≈ 10.2 µM)	4	
N#Cc1ccc(-c2ccc(N3C[C@H](CN)OC3=O)cc2F)cc1O	> 256 mg/L	64 mg/L (≈ 196 µM)					
NC[C@H]1CN(c2ccc(-c3ccc(F)c(O)c3)c(F)c2)C(=O)O1	256 mg/L (≈ 799 µM)	64 mg/L (≈ 200 µM)	1	256 mg/L	256 mg/L (≈ 799 µM)	1	
COc1ccccc1-c1ccc(N2C[C@H](CO)OC2=O)cc1	> 64 mg/L	64 mg/L (≈ 214 µM)					
N/C(=N\O)c1ccc(-c2ccc(N3C[C@H](CO)OC3=O)cc2F)cc1O			1			2	
O=C1CCc2cc(-c3ccc(N4C[C@H](CO)OC4=O)cc3F)cc(O)c21	> 256 mg/L	1 mg/L (≈ 2.8 µM)	8	64 mg/L	8 mg/L (≈ 22.4 µM)	>32	
NCc1ccc(-c2ccc(N3C[C@H](Cn4cc(O)nn4)OC3=O)cc2F)cc1	> 64 mg/L	8 mg/L (≈ 20.9 µM)	>2		32 mg/L (≈ 83.5 µM)		
NCc1ccc(-c2ccc(N3C[C@H](C(=O)O)OC3=O)cc2F)cc1	> 256 mg/L	> 64 mg/L					
O=C1O[C@@H](CO)CN1c1ccc(O)c(F)c1	> 256 mg/L	> 64 mg/L					
NC[C@H]1CN(c2ccc(N3CCOCC3)c(F)c2)C(=O)O1	> 256 mg/L	> 64 mg/L					
O=C1O[C@@H](CO)CN1c1ccc(-c2ccc(F)c(O)c2)[n+]([O-])c1	> 256 mg/L	64 mg/L (≈ 200 µM)					
NCc1ccc(-c2ccc(N3C[C@H](Cn4cc(CO)nn4)OC3=O)cc2F)cc1	256 mg/L (≈ 644 µM)	16 mg/L (≈ 40.3 µM)		128 mg/L	64 mg/L (≈ 161 µM)	2	
NCc1ccc(-c2ccc(N3C[C@H](C(N)=O)OC3=O)cc2F)cc1	> 256 mg/L	> 64 mg/L					
